Assay results taken from PMC3823413 (Journal of Cellular and Molecular Medicine, 2008).

Legend:
[1] = system: human PMN; conditions: H2O2 production; PMN incubated with mediator for 6 hrs; mean (± S.E.M.)
[2] = system: human PMN; assay: Vitality of human PMN after incubation with inflammatory mediators; assay type: cell-based; conditions: dead cells after 6 hrs incubation with mediator; mean (± S.E.M.)
[3] = system: fMLP-stimulated H2O2 production in human PMN; assay: Adenosine inhibition of fMLP-stimulated H2O2 production in human PMN; assay type: cell-based; conditions: for IC50: Homo sapiens
[4] = PMN pre-incubated with IFN-γ 6 hrs
[5] = PMN pre-incubated with IL-1 6 hrs
[6] = PMN pre-incubated with IL-8 6 hrs
[7] = PMN pre-incubated with LPS 10 μg/ml 6 hrs
[8] = PMN pre-incubated with TNF-α 6 hrs

TNF-α
Spontaneous activity [1]: 34 (± 1.51) MFI
PI-positive PMN [2]: 2.89 (± 0.39) %

IL-8: cytokine used for PMN stimulation
Spontaneous activity [1]: 30 (± 1.76) MFI
PI-positive PMN [2]: 1.74 (± 0.36) %

IFN-γ: cytokine used for PMN stimulation
Spontaneous activity [1]: 36 (± 2.37) MFI

Nc1ncnc2c1ncn2[C@@H]1O[C@H](CO)[C@@H](O)[C@H]1O [adenosine]
IC50 ([3]; 6 h, control (native) PMN, culture medium 6 hrs): 75 nM
IC50 [3, 4]: 123 nM
IC50 [3, 5]: 40 nM
IC50 [3, 6]: 43 nM
IC50 [3, 7]: 332 nM
IC50 [3, 8]: 106 nM
concentration reaching maximum inhibition ([3]; LPS-incubated PMN): 10^−5 M
increase of the IC50 on the H2O2 production ([3]; LPS-treated (6 hrs) versus native human PMN): 4.4 fold
Max. inhibition (6 S.E.M.) [3, 4]: 86.8 (± 4.3) %
Max. inhibition (6 S.E.M.) [3, 5]: 78.6 (± 2.5) %
Max. inhibition (6 S.E.M.) [3, 6]: 76.3 (± 5.8) %
Max. inhibition (6 S.E.M.) [3, 7]: 75.2 (± 2.5) %
Max. inhibition (6 S.E.M.) [3, 8]: 84.8 (± 3.6) %
Max. inhibition (6 S.E.M.) ([3]; control (native) PMN, culture medium 6 hrs): 78.8 (± 1.5) %
concentration reaching maximum inhibitory effects ([3]; untreated neutrophils): 10^−6 M

B1: IFN-γ: cytokine used for PMN stimulation (protein, UniProt P01579 24-161, looked up)
Interferon gamma: QDPYVKEAENLKKYFNAGHSDVADNGTLFLGILKNWKEESDRKIMQSQIVSFYFKLFKNFKDDQSIQKSVETIKEDMNVKFFNSNKKKRDDFEKLTNYSVTDLNVQRKAIHELIQVMAELSPAAKTGKRKRSQMLFRG
PI-positive PMN [2]: 2.76 (± 0.37) %
